This is an account of results in patent US5886190A, “Rapid synthesis and use of 18F-fluoromisonidazole and analogs” (priority 1997, dated 1999).

Bounds are passed on as bounds.

The subject of data set [1] is hypoxic elements within a tumor volume. The data set can be described thus: Patient studies of ^18 F-FMISO uptake in tumors. To be noted: in vivo. An excerpt: In patient studies, the hypoxic elements within a tumor volume was defined as regions with a threshold regional tumor to plasma (^18 F-FMISO) ratio of ≥1.4 by 2 or more hours after injection.
The format of data set [2] is in vivo, 70 Kg male (human). An excerpt: The following Table summarizes the results of dosimetry calculation for radiation exposure to several […] tissues.
Dosimetry: Normal Tissue Dosimetry for ^18 F-FMISO

Data set [3] has as its system mammary tumor. The experiment in a line: Autoradiographic studies in tumor-bearing rats. To be noted: 1 hour postinjection. The protocol: (§1) The synthesis scheme for [^18 F]FETNIM is depicted in FIG. 6. Biodistribution studies of [^18 F]FETNIM were performed at 1, 2 and 4 hours in mammary tumor-bearing rats (10 μCi, iv, N=3/time interval). Autoradiograms were performed at 1 hour postinjection of [^18 F]FETNIM, and a comparison has been made with [^18 F]fluoromisonidazole (FMISO). Intratumoral oxygen tension measurements were performed using the Eppendorf computerized histographic system. Twenty to twenty-five pO2 measurements along each of 2 to 3 linear tracks were performed at 0.4 mm intervals on each tumor. PET imaging studies of [^18 F]FETNIM were performed in rabbits bearing V2 tumors (N=3, 4 mCI, iv) which were located on the right leg.
Female Fischer 344 mammary tumor-bearing rats (n=3) after receiving [^18 F]FETNIM (2 mCi, iv) were sacrificed at 1 h. […] The rats were sacrificed at 1 hour postinjection. The rat body was fixed in a carboxymethyl cellulose (4%) block. The frozen body in a block was mounted to a cryostat (LKB 2250 cryo-microtome, Ijamsville, Md.) and 40 μm coronal sections were made. The section was freeze dried, then mounted on a x-ray film (X-Omat AR, Kodak, Rochester, N.Y.) for 24 hours.

Data set [4] concerns hypoxic cells. The data set can be described thus: Selectivity to hypoxic cells (PET imaging, autoradiograms, biodistribution). As to conditions: in vivo. The protocol:
as §1
PET imaging was performed with a positron camera (Positron Corporation, Houston, Tex.). The tomograph has a field-of-view of 42 cm on transverse and 12 cm on coronal planes. The axial resolution on the reconstructed plane is 1.2 cm. […]
Female Fischer 344 rats (250-275 g) (Harlan, Inc., Indianapolis, Ind.) were inoculated with mammary tumor cells in the lumbar area using a 13762 tumor cell line (s.c. 10^5 cells/rat). […] The tissues were excised, weighed and counted for radioactivity. The percent of injected dose per gram of tissue weight was determined.

Data set [5] relates to rats. To be noted: 2 mCi/Kg single dose; n=3; follow-up 5 days. The protocol:
In addition, animal acute toxicity studies have been performed, rats (n=3) were administered 2 mCi/Kg as a single dose.

The test system of data set [6] is hypoxic cells. As to conditions: radiobiologically significant oxygen levels; cited from earlier work.
Data set [7] relates to hypoxic elements within a tumor volume. As to conditions: 2 or more hours after injection; cited from earlier work.
In data set [8] the test system is intracellular nitroreductases. To be noted: cited from earlier work.
Data set [9] relates to nasalpharyngeal cancer (NPC). The data set can be described thus: PET imaging of patients with nasalpharyngeal cancer. As to conditions: 10 mCi. The format is in vivo, human (patients). The protocol: PET imaging studies were performed on two patients with nasalpharyngeal cancer (NPC). […] After each patient had received 10 mCi of [^18 F]FMISO, eight consecutive 15-min scans were taken. […] Each patient was also administered [^18 F]FDG to ascertain the tumor region.

For the molecule `O=[N+]([O-])c1nccn1CC(O)C[18F]` (stereo not shown) [[^18 F]FMISO, 3-[^18 F]Fluoro-1-(2'-nitro-1'-imidazoyl)-2-propanol], in data set [1], the “Feasibility of detecting hypoxia in human head and neck tumors” value was “feasibility of using ^18 F-FMISO to detect hypoxia in human head and neck tumors”. Also, in [2] (70 Kg male, 0.1 mCi/Kg), the “Bladder wall dose relative to muscle dose” value is “about five times as much”; the “Liver and kidney dose relative to muscle dose” value was “nearly twice the muscle dose”; the “Total body musculature dose in a routine study” value was determined as 120 mrem. The “Normal tissue dose, bladder” value in data set [2] (bladder, 7 mCi/70 Kg, n = 2) came out at 570 mrad. Moreover, the “Normal tissue dosimetry, bladder” value in [2] (bladder, ± SD) was 81.5 ± 47 mrad/mCi. Further, the “Normal tissue dose, kidney” value in data set [2] (kidney, 7 mCi/70 Kg, n = 3) was found to be 180 mrad. In addition, in [2] (kidney, ± SD), the “Normal tissue dosimetry, kidney” value was 25.8 ± 5.5 mrad/mCi. Moreover, the “Normal tissue dose, liver” value in [2] (liver, 7 mCi/70 Kg, n = 3) was determined as 190 mrad. Further, in [2] (liver, ± SD), the “Normal tissue dosimetry, liver” value was 26.8 ± 9.7 mrad/mCi. In [2] (muscle, 7 mCi/70 Kg, n = 6), the “Normal tissue dose, muscle” value was 120 mrad. Further, the “Normal tissue dosimetry, muscle” value in [2] (muscle, ± SD) came to 16.8 ± 7.9 mrad/mCi. The “Uptake in intestines and colon” value in [3] is “high uptake”. Further, the “Differentiation of hypoxic versus necrotic regions in the tumor” value in data set [3] (autoradiogram) is “could differentiate hypoxic versus necrotic regions in the tumor”. The “Selectivity to hypoxic cells” value in data set [4] was “selective to hypoxic cells”. Moreover, the Acute toxicity result in [5] is given as “All rats tolerated this dose without toxicity”. Further, in [6], the “Selective binding to hypoxic cells” value is “bind selectively to hypoxic cells in vitro and in vivo”. Also, in data set [7], the “Threshold regional tumor to plasma ratio defining hypoxic elements” value is recorded as not below 1.4. In [8], the Metabolism result is “metabolized by intracellular nitroreductases”. Also, the “Detection of hypoxic tumors by PET” value in data set [9] was “able to detect primary or metastatic hypoxic tumors”. In addition, the “PET tumor uptake, first patient” value in data set [9] (first patient) was “showed tumor uptake in the lymph node region”. The “PET finding, second patient” value in [9] (second patient) is “the recurrent primary tumor is hypoxic”.
